Test system: 699152-130-R-J1-PDC complex spheroid viability
Test: Anticancer human tumor 699152-130-R-J1-PDC patient-derived pancreatic carcinoma cell line growth inhibition [POLQ]
Conditions: for IC50: curve of first compound; for viability, T/C: stronger effect = lower value
How it was run: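 Three-cell-type spheroids modelling solid tumor plus stroma served as the readout system; POL inhibitors were tested individually and in combination, concentration ranges set by clinical Cmax where known.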

[1] = second compound 0.0316 µM, first compound 0.0316 µM
[2] = second compound 0.0316 µM, first compound 0.1 µM
[3] = second compound 0.0316 µM, first compound 0.316 µM
[4] = second compound 0.0316 µM, first compound 1 µM
[5] = second compound 0.0316 µM, first compound 3.16 µM
[6] = second compound 0.0316 µM, first compound 10 µM
[7] = second compound 0.1 µM, first compound 0.0316 µM
[8] = second compound 0.1 µM, first compound 0.1 µM
[9] = second compound 0.1 µM, first compound 0.316 µM
[10] = second compound 0.1 µM, first compound 1 µM
[11] = second compound 0.1 µM, first compound 3.16 µM
[12] = second compound 0.1 µM, first compound 10 µM
[13] = second compound 0.316 µM, first compound 0.0316 µM
[14] = second compound 0.316 µM, first compound 0.1 µM
[15] = second compound 0.316 µM, first compound 0.316 µM
[16] = second compound 0.316 µM, first compound 1 µM
[17] = second compound 0.316 µM, first compound 3.16 µM
[18] = second compound 0.316 µM, first compound 10 µM
[19] = second compound 1 µM, first compound 0.0316 µM
[20] = second compound 1 µM, first compound 0.1 µM
[21] = second compound 1 µM, first compound 0.316 µM
[22] = second compound 1 µM, first compound 1 µM
[23] = second compound 1 µM, first compound 3.16 µM
[24] = second compound 1 µM, first compound 10 µM
[25] = second compound 3.16 µM, first compound 0.0316 µM
[26] = second compound 3.16 µM, first compound 0.1 µM
[27] = second compound 3.16 µM, first compound 0.316 µM
[28] = second compound 3.16 µM, first compound 1 µM
[29] = second compound 3.16 µM, first compound 3.16 µM
[30] = second compound 3.16 µM, first compound 10 µM
[31] = second compound 10 µM, first compound 0.0316 µM
[32] = second compound 10 µM, first compound 0.1 µM
[33] = second compound 10 µM, first compound 0.316 µM
[34] = second compound 10 µM, first compound 1 µM
[35] = second compound 10 µM, first compound 3.16 µM
[36] = second compound 10 µM, first compound 10 µM
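Note: spheroids exposed to agents for 7 days before viability reading.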
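Throughout, for viability, T/C: percent of DMSO vehicle control viability so 100% = vehicle and 0% = no viable signal.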

COc1cc2cc(C(=O)CCC(=O)O)sc2cc1OC + COC1C(OC(N)=O)C(O)C(Oc2ccc3c(O)c(NC(=O)c4ccc(O)c(CC=C(C)C)c4)c(=O)oc3c2C)OC1(C)C
IC50 (second compound 0.0316 µM): > 10000 nM | IC50 (second compound 0.1 µM): > 10000 nM | IC50 (second compound 0.316 µM): > 10000 nM | IC50 (second compound 1 µM): > 10000 nM | IC50 (second compound 3.16 µM): > 10000 nM | IC50 (second compound 10 µM): > 10000 nM | viability, T/C [1]: 104% | viability, T/C [2]: 113% | viability, T/C [3]: 97.1% | viability, T/C [4]: 95.8% | viability, T/C [5]: 106% | viability, T/C [6]: 103% | viability, T/C [7]: 91.2% | viability, T/C [8]: 109% | viability, T/C [9]: 94.3% | viability, T/C [10]: 93.7% | viability, T/C [11]: 103% | viability, T/C [12]: 97.5% | viability, T/C [13]: 107% | viability, T/C [14]: 110% | viability, T/C [15]: 105% | viability, T/C [16]: 108% | viability, T/C [17]: 101% | viability, T/C [18]: 95.8% | viability, T/C [19]: 110% | viability, T/C [20]: 105% | viability, T/C [21]: 93% | viability, T/C [22]: 102% | viability, T/C [23]: 98.6% | viability, T/C [24]: 103% | viability, T/C [25]: 110% | viability, T/C [26]: 98.6% | viability, T/C [27]: 107% | viability, T/C [28]: 92.4% | viability, T/C [29]: 109% | viability, T/C [30]: 102% | viability, T/C [31]: 113% | viability, T/C [32]: 100% | viability, T/C [33]: 120% | viability, T/C [34]: 107% | viability, T/C [35]: 98.8% | viability, T/C [36]: 106%

Nc1ccn(C2OC(CO)C(O)C2(F)F)c(=O)n1 (stereo unspecified) + COC1C(OC(N)=O)C(O)C(Oc2ccc3c(O)c(NC(=O)c4ccc(O)c(CC=C(C)C)c4)c(=O)oc3c2C)OC1(C)C
IC50 (second compound 0.0316 µM): 202 nM | IC50 (second compound 0.1 µM): 262 nM | IC50 (second compound 0.316 µM): 376 nM | IC50 (second compound 1 µM): 264 nM | IC50 (second compound 3.16 µM): 475 nM | IC50 (second compound 10 µM): 765 nM | viability, T/C [1]: 68.1% | viability, T/C [2]: 52.2% | viability, T/C [3]: 42.9% | viability, T/C [4]: 48.3% | viability, T/C [5]: 39% | viability, T/C [6]: 31.2% | viability, T/C [7]: 73.5% | viability, T/C [8]: 56.1% | viability, T/C [9]: 48.7% | viability, T/C [10]: 44.8% | viability, T/C [11]: 35.4% | viability, T/C [12]: 34.3% | viability, T/C [13]: 64.4% | viability, T/C [14]: 56.6% | viability, T/C [15]: 49.7% | viability, T/C [16]: 44.4% | viability, T/C [17]: 46.4% | viability, T/C [18]: 35.4% | viability, T/C [19]: 70% | viability, T/C [20]: 51.5% | viability, T/C [21]: 53.3% | viability, T/C [22]: 45.1% | viability, T/C [23]: 43.2% | viability, T/C [24]: 40.1% | viability, T/C [25]: 61.7% | viability, T/C [26]: 55.6% | viability, T/C [27]: 51.4% | viability, T/C [28]: 51.5% | viability, T/C [29]: 37.1% | viability, T/C [30]: 40.8% | viability, T/C [31]: 72.1% | viability, T/C [32]: 56.7% | viability, T/C [33]: 54.8% | viability, T/C [34]: 51.3% | viability, T/C [35]: 44.1% | viability, T/C [36]: 38%

CC(=O)O[C@H]1C(=O)[C@@]2(C)[C@H]([C@H](OC(=O)c3ccccc3)[C@]3(O)C[C@H](OC(=O)[C@H](O)[C@@H](NC(=O)c4ccccc4)c4ccccc4)C(C)=C1C3(C)C)[C@]1(OC(C)=O)CO[C@@H]1C[C@@H]2O + Nc1ccc(C#CCN(C(=O)Cc2ncc(C(F)(F)F)cc2C(F)(F)F)c2ccc(F)cc2)nn1
IC50 (second compound 0.0316 µM): > 3000 nM | IC50 (second compound 0.1 µM): > 3000 nM | IC50 (second compound 0.316 µM): > 3000 nM | IC50 (second compound 1 µM): > 3000 nM | IC50 (second compound 3.16 µM): > 3000 nM | IC50 (second compound 10 µM): > 3000 nM | viability, T/C (second compound 0.0316 µM, first compound 0.00949 µM): 82% | viability, T/C (second compound 0.0316 µM, first compound 0.03 µM): 66.1% | viability, T/C (second compound 0.0316 µM, first compound 0.0949 µM): 62.1% | viability, T/C (second compound 0.0316 µM, first compound 0.3 µM): 67.1% | viability, T/C (second compound 0.0316 µM, first compound 0.949 µM): 72.8% | viability, T/C (second compound 0.0316 µM, first compound 3 µM): 75.6% | viability, T/C (second compound 0.1 µM, first compound 0.00949 µM): 79.8% | viability, T/C (second compound 0.1 µM, first compound 0.03 µM): 69% | viability, T/C (second compound 0.1 µM, first compound 0.0949 µM): 61.4% | viability, T/C (second compound 0.1 µM, first compound 0.3 µM): 63.2% | viability, T/C (second compound 0.1 µM, first compound 0.949 µM): 68.8% | viability, T/C (second compound 0.1 µM, first compound 3 µM): 70.5% | viability, T/C (second compound 0.316 µM, first compound 0.00949 µM): 85.3% | viability, T/C (second compound 0.316 µM, first compound 0.03 µM): 69.2% | viability, T/C (second compound 0.316 µM, first compound 0.0949 µM): 65.5% | viability, T/C (second compound 0.316 µM, first compound 0.3 µM): 68% | viability, T/C (second compound 0.316 µM, first compound 0.949 µM): 64.8% | viability, T/C (second compound 0.316 µM, first compound 3 µM): 72.8% | viability, T/C (second compound 1 µM, first compound 0.00949 µM): 83% | viability, T/C (second compound 1 µM, first compound 0.03 µM): 72.2% | viability, T/C (second compound 1 µM, first compound 0.0949 µM): 65.5% | viability, T/C (second compound 1 µM, first compound 0.3 µM): 65.4% | viability, T/C (second compound 1 µM, first compound 0.949 µM): 71.6% | viability, T/C (second compound 1 µM, first compound 3 µM): 67.7% | viability, T/C (second compound 3.16 µM, first compound 0.00949 µM): 80.9% | viability, T/C (second compound 3.16 µM, first compound 0.03 µM): 68% | viability, T/C (second compound 3.16 µM, first compound 0.0949 µM): 65.4% | viability, T/C (second compound 3.16 µM, first compound 0.3 µM): 69.9% | viability, T/C (second compound 3.16 µM, first compound 0.949 µM): 84.2% | viability, T/C (second compound 3.16 µM, first compound 3 µM): 76.9% | viability, T/C (second compound 10 µM, first compound 0.00949 µM): 97% | viability, T/C (second compound 10 µM, first compound 0.03 µM): 70.5% | viability, T/C (second compound 10 µM, first compound 0.0949 µM): 72.3% | viability, T/C (second compound 10 µM, first compound 0.3 µM): 71.9% | viability, T/C (second compound 10 µM, first compound 0.949 µM): 86.7% | viability, T/C (second compound 10 µM, first compound 3 µM): 78.5%

Reference: PubChem BioAssay AID1963835 (Molecular Pharmacology Branch, DTP, NCI, 2024)
